Experimental data published in patent US8753648B2 (priority 2002, dated 2014).

Assays:
cowpox virus [1] = settings: mouse, in vivo; cited from earlier work
cowpox virus [2] = settings: mouse, in vivo; cited from earlier work; remark: listed apart in the source
CV-1 cells = settings: African green monkey
RK44.20 cells = settings: rabbit

| Compound | effect on mortality (cowpox virus [1]) | effect on death (cowpox virus [2]) | AZT concentration with toxic effect on cells (CV-1 cells) [mg/mL] | AZT concentration with toxic effect on cells (RK44.20 cells) [mg/mL] |
| --- | --- | --- | --- | --- |
| Nc1ccn(C[C@@H](CO)OCP(=O)(O)O)c(=O)n1 [Cidofovir] | reduce mortality | only delayed but did not prevent death | – | – |
| Cc1cn([C@H]2C[C@H](N=[N+]=[N-])[C@@H](CO)O2)c(=O)[nH]c1=O [AZT, 3′-azido-2′,3′-dideoxythymidine] | – | – | > 1.5 | > 1.5 |
